From patent publication US11603368B2, “Fused thiophene derivatives and their uses” (ENYO PHARMA, priority 2018, dated 2023)

How the values were obtained:
[1] = test system: H1N1 (influenza A/New Caledonia/20/99); test: Antiviral effect on A549 cells infected with H1N1; assay type: cell-based, H1N1 A/New Caledonia/20/99 virus; details: Human A549 cells, MOI of 0.1, 48 h post-infection, MUNANA hydrolysis readout
Method: The antiviral effect of the compounds of the invention has been tested on A549 cell lines infected with H1N1 (influenza A/New Caledonia/20/99).
Human A549 cells (80,000 cells/well in a 96 well plate) were treated with a range of concentration of test molecules and immediately infected by H1N1 A/New Caledonia/20/99 virus (clinical isolate) at MOI of 0.1 in DMEM/1% Penicillin/streptomycin supplemented with 0.25 μg/ml TPCK trypsin (Sigma) and incubated at 37° C. in 5% CO2. 48 h post-infection, supernatants (25 μl) were collected and transferred into a 96-well black flat-bottom plate, mixed with 25 μl PBS with Ca++/Mg++(Thermo Fisher) and 50 μl of 2′-(4-Methylumbelliferyl)-α-D-N-acetylneuraminic acid sodium salt hydrate stock-solution (20 μM, MUNANA, Sigma). Plates were incubated 1 h at 37° C. and reaction is stopped by adding 100 μl of Stop Solution (glycine 0.1 M pH10.7/25% ethanol). The amount of fluorescent product released by MUNANA hydrolysis (4-MU) was measured in a Tecan spectrophotometer with excitation and emission wavelengths of 365 and 450 nm respectively.

[2] = target: T1, CISD1 Gene Product (mitoNEET) (Homo sapiens, UniProt Q9NZ45); test: Stability of Fe—S cluster binding of purified NEET protein mitoNEET; assay type: biochemical; details: for Time (in minutes) to achieve 50% loss of bound cluster (Absorbance 458 nm), CISD1 Gene Product (mitoNEET) / Residual cluster bound at end of experiment (Percentage Absorbance 458 nm at time zero), CISD1 Gene Product (mitoNEET): pH 6, 37° C., 1:3 protein:compound molar ratio; for Time (in minutes) to achieve 50% loss of bound cluster (Absorbance 458 nm), CISD1 Gene Product (mitoNEET): 6 μM compound, run time 180 minutes, Vehicle Control 80; for Residual cluster bound at end of experiment (Percentage Absorbance 458 nm at time zero), CISD1 Gene Product (mitoNEET): end of 180 minutes, Vehicle Control 16%; for stabiliser or destabiliser of Fe—S cluster binding, CISD1 Gene Product (mitoNEET): time to 50% Fe—S cluster bound loss changed by more than 25% vs Control sample, at the concentrations tested
T1 sequence (Q9NZ45 33-108 limits assumed): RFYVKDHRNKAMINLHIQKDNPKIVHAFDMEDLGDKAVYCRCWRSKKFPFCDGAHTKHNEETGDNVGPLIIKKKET
Method: (§1) The modulator effect on the NEET proteins encoded by human CISD1, CISD2, and CISD3 genes by the compounds of the invention has been tested and is reported below. Particularly, the biochemical function of the NEET proteins is measured by the stability of Fe—S cluster binding of the purified NEET proteins.
(§2) The Fe—S cluster binding capacity of NEET proteins is known to be coordinated by four amino-acids in a stretch of 16 (three Cysteine and one Histidine). As the lability of the Fe—S cluster of NEET proteins is sensitive to the environment, cluster stability measurements are one of the measures of interactions of NEET proteins with small molecules and compounds. NEET protein/2Fe-2S cluster stability can be assessed by monitoring the decay in absorbance of its characteristic 458-nm peak (characteristic of the oxidized 2Fe-2S cluster) over time. Each NEET protein (mitoNEET, NAF-1 and Miner 2) was tested for its Fe—S binding in the absence or presence of a compound according to the invention (see table 2 below). The rate of cluster release (time in minutes to achieve 50% loss of bound Fe—S cluster) was compared for each NEET protein in the presence of one of the compounds of the invention (in a 1:3 protein:compound molar ratio) relative to each protein alone.
(§3) At pH 6, all the three NEET proteins (mitoNEET, NAF-1 and Miner 2) have a characteristic rate of loss of the bound Fe—S cluster that can be measured by the decrease of absorbance at wavelength 458 nm over time, using a spectrophotometer. Thus, Bis-Tris buffer (100 mM Bis-Tris pH6, 100 mM Nacl) was used at pH 6 to dilute either DMSO (Blank sample: Bis-Tris Buffer pH 6, 6 μM DMSO), DMSO and one of the three NEET proteins (Control sample: Bis-Tris Buffer pH 6, 6 μM DMSO, 2 μM purified NEET protein) or DMSO, one of the three NEET proteins and a compound of the invention (Test sample: Bis-Tris Buffer pH 6, 6 μM DMSO, […], 6 μM compound of the invention).
(§4) A reaction mix containing DMSO diluted in the Bis-Tris Buffer with or without a compound of the invention was prepared. The purified NEET protein was the last component added to the reaction mix which was then aliquoted into 4 replicates in 96 wells plates. The absorbance at wavelength 458 nm was taken at 5 minutes intervals at 37° C. with a spectrofluorimeter. The assay run time for CISD2 gene product (NAF-1) was 500 minutes and 180 minutes for both the CISD 1 gene product (mitoNEET) and the CISD3 gene product (Miner 2).
(§5) In addition to time monitoring, residual bound Fe—S cluster to NEET protein was measured at the final point of the spectrometry assay for each Test sample and compared to the Control sample data (in parenthesis table 2). This residual binding is measured by the differential percentage between the absorbance 458 nm at time zero and the absorbance 458 nm at the end of the experiment (i.e. respectively 500 or 180 minutes as described hereabove), showing the percentage of NEET protein still able to bind a Fe—S cluster.
(§6) Analysis of the absorbance enables the time for which 50% loss of bound Fe—S cluster is reached (i.e. a 50% absorbance decrease at 458 nm) for each Test sample and each Control sample (in parenthesis table 2) to be determined. The data are then compared to determine whether the compound of the invention stabilizes or destabilizes the NEET protein/Fe—S cluster binding.

[3] = target: T2, CISD2 Gene Product (NAF-1) (Homo sapiens, UniProt Q8N5K1); test: Stability of Fe—S cluster binding of purified NEET protein NAF-1; assay type: biochemical; details: for Time (in minutes) to achieve 50% loss of bound cluster (Absorbance 458 nm), CISD2 Gene Product (NAF-1) / Residual cluster bound at end of experiment (Percentage Absorbance 458 nm at time zero), CISD2 Gene Product (NAF-1): pH 6, 37° C., 1:3 protein:compound molar ratio; for Time (in minutes) to achieve 50% loss of bound cluster (Absorbance 458 nm), CISD2 Gene Product (NAF-1): 6 μM compound, run time 500 minutes, Vehicle Control 310; for Residual cluster bound at end of experiment (Percentage Absorbance 458 nm at time zero), CISD2 Gene Product (NAF-1): end of 500 minutes, Vehicle Control 3%; for stabiliser or destabiliser of Fe—S cluster binding, CISD2 Gene Product (NAF-1): time to 50% Fe—S cluster bound loss changed by more than 25% vs Control sample, at the concentrations tested
T2 sequence (Q8N5K1 57-135 limits assumed): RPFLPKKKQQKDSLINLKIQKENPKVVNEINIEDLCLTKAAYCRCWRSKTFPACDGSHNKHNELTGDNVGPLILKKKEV
Method: as §1, §2, §3, §4, §5, §6

[4] = target: T3, CISD3 Gene Product (Miner2) (Homo sapiens, UniProt P0C7P0); test: Stability of Fe—S cluster binding of purified NEET protein Miner2; assay type: biochemical; details: for Time (in minutes) to achieve 50% loss of bound cluster (Absorbance 458 nm), CISD3 Gene Product (Miner2) / Residual cluster bound at end of experiment (Percentage Absorbance 458 nm at time zero), CISD3 Gene Product (DMSO 11%): pH 6, 37° C., 1:3 protein:compound molar ratio; for Time (in minutes) to achieve 50% loss of bound cluster (Absorbance 458 nm), CISD3 Gene Product (Miner2): 6 μM compound, run time 180 minutes, Vehicle Control 60; for Residual cluster bound at end of experiment (Percentage Absorbance 458 nm at time zero), CISD3 Gene Product (DMSO 11%): end of 180 minutes, Vehicle Control 11%; for stabiliser or destabiliser of Fe—S cluster binding, CISD3 Gene Product (Miner2): time to 50% Fe—S cluster bound loss changed by more than 25% vs Control sample, at the concentrations tested
T3 sequence (P0C7P0 15-127): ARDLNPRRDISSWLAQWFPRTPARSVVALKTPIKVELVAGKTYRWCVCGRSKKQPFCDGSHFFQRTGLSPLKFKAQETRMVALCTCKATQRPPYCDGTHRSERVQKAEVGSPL
Method: as §1, §2, §3, §4, §5, §6

[5] = Influenza A virus, H1N1, A549, 48 h

Structure (SMILES)	IC50 [1]	Time (in minutes) to achieve 50% loss of bound cluster (Absorbance 458 nm), CISD1 Gene Product (mitoNEET) [2]	Residual cluster bound at end of experiment (Percentage Absorbance 458 nm at time zero), CISD1 Gene Product (mitoNEET) [2]	Time (in minutes) to achieve 50% loss of bound cluster (Absorbance 458 nm), CISD2 Gene Product (NAF-1) [3]	Residual cluster bound at end of experiment (Percentage Absorbance 458 nm at time zero), CISD2 Gene Product (NAF-1) [3]	stabiliser or destabiliser of Fe—S cluster binding, CISD2 Gene Product (NAF-1) [3]	Time (in minutes) to achieve 50% loss of bound cluster (Absorbance 458 nm), CISD3 Gene Product (Miner2) [4]	Residual cluster bound at end of experiment (Percentage Absorbance 458 nm at time zero), CISD3 Gene Product (DMSO 11%) [4]	IC50 [1, 5]	stabiliser or destabiliser of Fe—S cluster binding, CISD1 Gene Product (mitoNEET) [2]	stabiliser or destabiliser of Fe—S cluster binding, CISD3 Gene Product (Miner2) [4]
O=C(Nc1sc2c(c1C(=O)O)CCC(c1ccccc1)C2)c1ccccc1 (centres unmarked) [#46]	0.15 µM	80 min	18%	90 min	14%	destabilisers	60 min	13%			
O=C(Nc1sc2c(c1C(=O)O)CCN(c1ccccc1)C2)c1ccccc1 [#52]		100 min	47%	during 500 minutes	50%	Stabilisers	during 180 minutes	54%	0.09 µM	stabilisers	Stabilisers
COc1ccc(C(=O)Nc2sc3c(c2C(=O)O)CCN(c2ccc(F)cc2C)C3)cc1OC [#54]		105 min	35%	305 min	31%		85 min	41%	0.06 µM	stabilisers	Stabilisers
CC(C)(C)C1CCc2c(sc(NC(=O)c3ccccc3)c2C(=O)O)C1 (centres unmarked) [#71]	0.16 µM	100 min	34%	125 min	15%	destabilisers	70 min	42%		stabilisers	
CC1CCCc2sc(NC(=O)c3ccccc3)c(C(=O)O)c21 (centres unmarked) [#74]	0.181 µM	90 min	0%	390 min	0%	Stabilisers	65 min	5%			
Cc1ccccc1C(=O)Nc1sc2c(c1C(=O)O)CCC(C(C)(C)C)C2 (centres unmarked) [#82]		during 180 minutes	60%	265 min	27%		during 180 minutes	64%	0.349 µM	stabilisers	Stabilisers
